{
  "source": "the OPERA property sets (Mansouri et al. 2018)",
  "data": [
    {"details": "not given", "units": {"boiling point": "°C", "melting point": "°C"}, "values": [
      {"smiles": "ClC(Cl)(Br)Br", "boiling point": 150, "melting point": 38},
      {"smiles": "CC(C)(C)C(=O)OCOc1ccccc1C(N)=O", "melting point": 95},
      {"smiles": "CCCCCCC(C)(C)O", "boiling point": 178},
      {"smiles": "O=C(c1ccccc1)c1cccnc1", "boiling point": 307, "melting point": 38},
      {"smiles": "CCN(CC)CCCN", "boiling point": 168},
      {"smiles": "CCc1cccc2c3c([nH]c12)C(CC)(CC(=O)O)OCC3", "note": "(stereo unspecified)", "melting point": 146},
      {"smiles": "COc1cc([N+](=O)[O-])ccc1N", "melting point": 141, "ready biodegradability": "not readily biodegradable"},
      {"smiles": "CCCCCC(=O)OC", "boiling point": 150, "log10 Henry constant (atm·m³/mol)": -3.44, "log10 vapour pressure (mmHg)": 0.57, "melting point": -71},
      {"smiles": "Nc1cc(N2CCCCC2)nc(N)[n+]1[O-]", "melting point": 248},
      {"smiles": "CC=Cc1ccc(OC)cc1", "boiling point": 234, "log10 vapour pressure (mmHg)": -1.15, "melting point": 21.3},
      {"smiles": "CCc1cccc(C)c1N(C(=O)CCl)C(C)COC", "note": "(stereo unspecified)", "log10 Henry constant (atm·m³/mol)": -8.05, "log10 Koc (L/kg)": 2.46, "log10 vapour pressure (mmHg)": -4.5, "melting point": -51},
      {"smiles": "COCCOCCOCCOC", "boiling point": 216, "log10 vapour pressure (mmHg)": -1.39, "melting point": -45},
      {"smiles": "CC1CCCc2ccccc21", "note": "(stereo unspecified)", "boiling point": 221},
      {"smiles": "CCP(CC)CC", "boiling point": 129, "melting point": -88},
      {"smiles": "CCCCCCCCCCCCCCI", "log10 vapour pressure (mmHg)": -3.85},
      {"smiles": "Oc1cccc2c1CCCC2", "boiling point": 266, "melting point": 70},
      {"smiles": "O=[N+]([O-])CCc1ccccc1", "boiling point": 250, "melting point": -23},
      {"smiles": "CN(C)c1cccc2ccccc12", "boiling point": 280},
      {"smiles": "CCCCCCCCOC(=O)CCCCC(=O)OCCCCCCCC", "log10 Henry constant (atm·m³/mol)": -6.36, "log10 vapour pressure (mmHg)": -6.07, "melting point": -70},
      {"smiles": "Cc1cc(Cl)nn1C", "boiling point": 211, "melting point": 47.5},
      {"smiles": "CC(CN1c2ccccc2Sc2ccccc21)N(C)C.Cl", "note": "(stereo unspecified)", "melting point": 228},
      {"smiles": "Oc1ccc(N=Nc2ccc(N=Nc3ccccc3)c3ccccc23)cc1", "melting point": 210},
      {"smiles": "Cc1ccccc1N", "boiling point": 200, "log10 Henry constant (atm·m³/mol)": -5.7, "log10 vapour pressure (mmHg)": -0.585, "melting point": -16.3, "ready biodegradability": "readily biodegradable"},
      {"smiles": "O=S(=O)(Cl)C(F)(F)F", "boiling point": 30.5},
      {"smiles": "C/C=C/C(=O)N(CC)c1ccccc1C", "ready biodegradability": "not readily biodegradable"},
      {"smiles": "OCCN(CCO)c1ccccc1", "melting point": 57},
      {"smiles": "O=C(C(F)(F)F)C(F)(F)F", "boiling point": -27.4, "log10 vapour pressure (mmHg)": 3.35, "melting point": -125},
      {"smiles": "CC(N)Cc1ccccc1", "note": "(stereo unspecified)", "log10 vapour pressure (mmHg)": -0.62},
      {"smiles": "BrC1CCCC1", "boiling point": 138},
      {"smiles": "BrCc1ccc(Br)cc1", "melting point": 63},
      {"smiles": "CC(=O)c1cccnc1", "boiling point": 220, "log10 Henry constant (atm·m³/mol)": -7.67, "melting point": 13.5},
      {"smiles": "Oc1ccccc1Cl", "boiling point": 175, "log10 Henry constant (atm·m³/mol)": -4.95, "log10 Koc (L/kg)": 2.6, "log10 vapour pressure (mmHg)": 0.403, "melting point": 9.8, "ready biodegradability": "not readily biodegradable"},
      {"smiles": "OC(c1ccccc1)c1ccccc1", "boiling point": 298, "log10 Koc (L/kg)": 2.34, "log10 vapour pressure (mmHg)": -4.56, "melting point": 69, "ready biodegradability": "readily biodegradable"},
      {"smiles": "NS(=O)(=O)c1ccc(SCCO)c([N+](=O)[O-])c1", "melting point": 151},
      {"smiles": "O=C(O)c1ccccc1Cc1ccccc1", "melting point": 118},
      {"smiles": "Cc1cc(C(C)C)ccc1O", "boiling point": 230, "melting point": 8.6},
      {"smiles": "C=CC(O)CC", "note": "(stereo unspecified)", "boiling point": 115},
      {"smiles": "C#CCCO", "boiling point": 129, "melting point": -63.6},
      {"smiles": "CCOP(=S)(OCC)Oc1ccc(SC)cc1", "log10 Koc (L/kg)": 3.18},
      {"smiles": "Clc1cccc(Cl)c1-c1ccccc1", "log10 Henry constant (atm·m³/mol)": -3.64},
      {"smiles": "COP(=S)(OC)SCSc1ccc(Cl)cc1", "log10 Koc (L/kg)": 4.67},
      {"smiles": "CCC(C)CCC(C)O", "note": "(stereo unspecified)", "boiling point": 170, "melting point": -61},
      {"smiles": "CC(=O)NC(N)=O", "melting point": 218},
      {"smiles": "C[C@]12CC[C@H]3[C@@H](CCC4=CC(=O)CC[C@@H]43)[C@@H]1CC[C@@H]2OC(=O)CCc1ccccc1", "melting point": 95.5},
      {"smiles": "C=C(C)C=C(C)C", "boiling point": 93.2, "melting point": -114},
      {"smiles": "FC(Br)C(F)(F)Br", "note": "(stereo unspecified)", "boiling point": 76},
      {"smiles": "Nc1ccc(C=O)cc1", "melting point": 71.5},
      {"smiles": "C=Cc1ccccc1CC", "boiling point": 187, "melting point": -75.5, "ready biodegradability": "not readily biodegradable"},
      {"smiles": "CNC(=O)O/N=C(\\C)C(C)S(C)(=O)=O", "note": "(stereo unspecified)", "log10 vapour pressure (mmHg)": -5.7, "melting point": 87},
      {"smiles": "COC(=O)CC[N+](=O)[O-]", "ready biodegradability": "readily biodegradable"},
      {"smiles": "CC(C)CCS", "boiling point": 120, "log10 vapour pressure (mmHg)": 1.31},
      {"smiles": "CC1=CC(=O)C(C2=C(O)C(=O)C(C)=CC2=O)=C(O)C1=O", "melting point": 230},
      {"smiles": "Cc1cc(Cl)cc(Cl)c1Cl", "boiling point": 230, "melting point": 45.5},
      {"smiles": "CC(C)=CCC(C)C", "boiling point": 112, "log10 vapour pressure (mmHg)": 1.4},
      {"smiles": "Cc1cc(O)c2c(c1)C(=O)c1cc(O)cc(O)c1C2=O", "melting point": 257},
      {"smiles": "O=Cc1c(Cl)cccc1Cl", "melting point": 71.5, "ready biodegradability": "not readily biodegradable"},
      {"smiles": "CCOC(=O)C1N=C(c2ccccc2F)c2cc(Cl)ccc2NC1=O", "note": "(stereo unspecified)", "melting point": 194},
      {"smiles": "C[C@H]1CC[C@@H]2C[C@H]1C2(C)C", "melting point": -53},
      {"smiles": "c1ccc(N2CCNCC2)cc1", "boiling point": 286, "log10 vapour pressure (mmHg)": -2.26},
      {"smiles": "CCCC(c1ccc(O)cc1)c1ccc(O)cc1", "melting point": 137},
      {"smiles": "CCOC(=O)CCCCCCCCC(=O)OCC", "boiling point": 305, "log10 vapour pressure (mmHg)": -3.29, "melting point": 5},
      {"smiles": "ClC(Cl)(Cl)Cl", "boiling point": 76.8, "log10 Henry constant (atm·m³/mol)": -1.56, "log10 Koa": 2.79, "log10 Koc (L/kg)": 1.85, "log10 vapour pressure (mmHg)": 2.06, "melting point": -23, "ready biodegradability": "not readily biodegradable"},
      {"smiles": "C[Si](C)(F)c1ccccc1", "log10 vapour pressure (mmHg)": 0.463},
      {"smiles": "CCC=C(C)C=O", "boiling point": 136},
      {"smiles": "CC[C@H]1CC[C@H](C)C1", "boiling point": 121, "melting point": -108},
      {"smiles": "O=C(O)c1nc(Cl)ccc1Cl", "log10 Koc (L/kg)": 1.56, "log10 vapour pressure (mmHg)": -4.92, "melting point": 151},
      {"smiles": "CC(C=O)Cc1ccc(C(C)(C)C)cc1", "note": "(stereo unspecified)", "ready biodegradability": "not readily biodegradable"},
      {"smiles": "CCCCC(CC)(CO)CO", "boiling point": 262, "log10 vapour pressure (mmHg)": -4, "melting point": 43.8, "ready biodegradability": "not readily biodegradable"},
      {"smiles": "Cc1cccc2c1CCCC2C", "note": "(stereo unspecified)", "boiling point": 239},
      {"smiles": "CN(C(=O)Cl)c1ccccc1", "boiling point": 280, "melting point": 88.5},
      {"smiles": "Cc1ccc2cccc(C)c2n1", "boiling point": 255, "melting point": 27},
      {"smiles": "CC1(C)CO1", "boiling point": 52},
      {"smiles": "NC(=S)NS(=O)(=O)c1ccc(N)cc1", "melting point": 182},
      {"smiles": "C1=Cc2cc3ccc(cc4nc(cc5ccc(cc1n2)[nH]5)C=C4)[nH]3", "melting point": 360},
      {"smiles": "CCC(C)O", "note": "(stereo unspecified)", "log10 Henry constant (atm·m³/mol)": -5.04, "log10 Koa": 3.85, "log10 vapour pressure (mmHg)": 1.26, "ready biodegradability": "readily biodegradable"},
      {"smiles": "C=C[Si](C)(Cl)Cl", "boiling point": 92.5},
      {"smiles": "C[Si](C)(C)O[Si](C)(C)O[Si](C)(C)O[Si](C)(C)O[Si](C)(C)O[Si](C)(C)O[Si](C)(C)O[Si](C)(C)O[Si](C)(C)C", "boiling point": 308},
      {"smiles": "O=[N+]([O-])c1ccc(SCl)c([N+](=O)[O-])c1", "melting point": 99},
      {"smiles": "FCF", "boiling point": -51.6, "log10 vapour pressure (mmHg)": 4.1, "melting point": -136},
      {"smiles": "CCOC(=O)C(Cl)CCl", "note": "(stereo unspecified)", "boiling point": 184},
      {"smiles": "Sc1nc2ccccc2s1", "log10 Koc (L/kg)": 2.25, "melting point": 181, "ready biodegradability": "readily biodegradable"},
      {"smiles": "CCc1ccc(CC)c(CC)c1", "boiling point": 218},
      {"smiles": "Cc1cccc(F)c1", "boiling point": 115, "log10 vapour pressure (mmHg)": 1.34, "melting point": -87},
      {"smiles": "O=C(O)CCCCCCCCCCCC(=O)O", "melting point": 111},
      {"smiles": "O=C(Cl)c1ccccc1C(=O)Cl", "boiling point": 281, "log10 vapour pressure (mmHg)": -1.79, "melting point": 15.5},
      {"smiles": "Cc1cccnc1C", "boiling point": 161, "log10 Henry constant (atm·m³/mol)": -5.14, "log10 vapour pressure (mmHg)": 0.43},
      {"smiles": "CCOC(O)C(F)(F)F", "note": "(stereo unspecified)", "boiling point": 104},
      {"smiles": "CC(=O)CC(=O)Nc1ccc(C)cc1", "ready biodegradability": "readily biodegradable"}
    ]},
    {"details": "fish", "values": [
      {"smiles": "CC(C)c1ccc2c(c1)CC[C@H]1[C@](C)(C(=O)O)CCC[C@]21C", "log10 BCF": 2.12},
      {"smiles": "Oc1ccccc1Cl", "log10 BCF": 1.35, "log10 biotransformation half-life (days)": -0.38},
      {"smiles": "ClC(Cl)(Cl)Cl", "log10 BCF": 0.87, "log10 biotransformation half-life (days)": -1.19},
      {"smiles": "Sc1nc2ccccc2s1", "log10 BCF": 0.9}
    ]}
  ]
}
